SMILES strings stand for the structures. Counter-ions that a name gives are not always drawn. Where only a bound is given, the exact number is not on record here.

The target of the experiment is T1, Human complement C1s enzyme (Homo sapiens, UniProt P09871).
T1 construct: purified from human serum, Complement Technology, Inc; purchased Complement Technology, Inc; host or cells: human serum
T1 sequence (P09871 438-688 limits assumed): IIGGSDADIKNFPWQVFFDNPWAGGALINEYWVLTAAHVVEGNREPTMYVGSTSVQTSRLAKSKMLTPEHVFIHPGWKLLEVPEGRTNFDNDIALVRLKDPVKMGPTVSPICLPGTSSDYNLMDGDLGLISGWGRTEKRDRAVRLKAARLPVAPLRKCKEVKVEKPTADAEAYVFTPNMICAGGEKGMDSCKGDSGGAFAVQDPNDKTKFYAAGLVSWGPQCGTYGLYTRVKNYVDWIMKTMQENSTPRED
T1 sequence (P09871 16-437 partner limits assumed): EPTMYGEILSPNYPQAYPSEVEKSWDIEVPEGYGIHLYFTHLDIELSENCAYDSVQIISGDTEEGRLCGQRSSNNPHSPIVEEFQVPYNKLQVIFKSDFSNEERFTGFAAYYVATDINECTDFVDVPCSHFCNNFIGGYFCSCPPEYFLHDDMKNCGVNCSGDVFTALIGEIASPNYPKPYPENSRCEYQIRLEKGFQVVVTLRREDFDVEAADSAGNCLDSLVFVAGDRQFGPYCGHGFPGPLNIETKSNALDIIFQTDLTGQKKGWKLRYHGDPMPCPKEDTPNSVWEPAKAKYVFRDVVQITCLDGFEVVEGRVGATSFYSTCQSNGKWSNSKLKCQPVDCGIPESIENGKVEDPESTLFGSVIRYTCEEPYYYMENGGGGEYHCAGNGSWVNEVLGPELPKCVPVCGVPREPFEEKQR
The experiment is described as follows: Human C1s Enzyme Assay. The class given is biochemical. The following applies: human C1s 1.16 nM, 5 min preincubation, substrate Z-L-Lys-SBzl 100 μM, A405; read-out: C1s Protease Activity. The method in brief: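 C1s purified from human serum (1.16 nM final) was preincubated with compound for 5 min at room temperature in 50 mM Tris, 1 M NaCl, pH 7.5. Z-L-Lys-SBzl and DTNB were then added at 100 μM each, and A405 was followed for 30 min. IC50 came from nonlinear regression of reaction rates.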
In the case of `COC[C@H]1C[C@@H](C(=O)NCc2cc(C(=N)N)cs2)N(C(=O)CNC(=O)c2ccc(Oc3ccccc3)cc2)C1` [Compound 14, (2S,4S)-N-((4-carbamimidoylthiophen-2-yl)methyl)-4-(methoxymethyl)-1-((4-phenoxybenzoyl)glycyl)pyrrolidine-2-carboxamide hydrochloride], the IC50 was less than 100 nM.
In the case of `C[C@@]12C[C@@H]1N(C(=O)CNC(=O)c1ccc(Oc3ccccc3)cc1)[C@H](C(=O)OCc1cc(C(=N)N)cs1)C2` [Compound 89, (1S,3S,5S)-(4-carbamimidoylthiophen-2-yl)methyl 5-methyl-2-((4-phenoxybenzoyl)glycyl)-2-azabicyclo[3.1.0]hexane-3-carboxylate], the IC50 is less than 100 nM.
In the case of `C[C@@]12C[C@@H]1N(C(=O)CNC(=O)c1ccc(Oc3ccccc3)cc1)[C@H](C(=O)NCc1cnc(N)s1)C2` [Compound 102, (1S,3S,5S)-N-[(2-amino-1,3-thiazol-5-yl)methyl]-5-methyl-2-{2-[(4-phenoxyphenyl)-formamido]acetyl}-2-azabicyclo[3.1.0]hexane-3-carboxamide], the IC50 fell in the range of 100 to 1000 nM.
To `N=C(N)c1csc(CNC(=O)[C@@H]2C=CCN2C(=O)CNC(=O)CCCOc2ccc(S(F)(F)(F)(F)F)cc2)c1` [Compound 95] belongs 100 to 1000 nM.
In the case of `C[C@@]12C[C@@H]1N(C(=O)CNC(=O)c1ccc(Oc3ccc(C(F)(F)F)cc3)cc1)[C@H](C(=O)NCc1cc(C(=N)N)cs1)C2` [Compound 92, (1S,3S,5S)-N-((4-carbamimidoylthiophen-2-yl)methyl)-5-methyl-2-((4-(4-(trifluoro-methyl)phenoxy)benzoyl)glycyl)-2-azabicyclo[3.1.0]hexane-3-carboxamide] it was 100 to 1000 nM; in that of `C[C@@H](NC(=O)[C@@H]1C[C@]2(C)C[C@@H]2N1C(=O)CNC(=O)CCCOc1ccccc1)c1cc(C(=N)N)cs1` [Compound 122, (1S,3S,5S)-N-((R)-1-(4-carbamimidoylthiophen-2-yl)ethyl)-5-methyl-2-((4-phenoxy-butanoyl)glycyl)-2-azabicyclo[3.1.0]hexane-3-carboxamide], less than 100 nM; in that of `N=C(N)c1csc(CNC(=O)[C@@H]2C[C@H](C(F)(F)F)CN2C(=O)CNC(=O)CCCOc2ccccc2)c1` [Compound 59, (2S,4S)-N-((4-carbamimidoylthiophen-2-yl)methyl)-1-((4-phenoxybutanoyl)glycyl)-4-(trifluoromethyl)pyrrolidine-2-carboxamide], less than 100 nM.
As for `C[C@@]12C[C@@H]1N(C(=O)CNC(=O)CCCOc1ccc(S(C)(=N)=O)cc1)[C@H](C(=O)NCc1cc(C(=N)N)cs1)C2` (stereo partly drawn) [Compound 76, (1S,3S,5S)-N-((4-carbamimidoylthiophen-2-yl)methyl)-5-methyl-2-((4-(4-(S-methyl-sulfonimidoyl)phenoxy)butanoyl)glycyl)-2-azabicyclo[3.1.0]hexane-3-carboxamide], the IC50 lay within 100 to 1000 nM.
In the case of `C[C@H](NC(=O)[C@@H]1C[C@]2(C)C[C@@H]2N1C(=O)CNC(=O)c1ccc(Oc2ccccc2)cc1)c1cc(C(=N)N)cs1` (single isomer, unassigned) [Compound 47, (1S,3S,5S)-N-((S*)-1-(4-carbamimidoylthiophen-2-yl)ethyl)-5-methyl-2-((4-phenoxy-benzoyl)glycyl)-2-azabicyclo[3.1.0]hexane-3-carboxamide] it was less than 100 nM; in that of `C[C@@H](NC(=O)[C@@H]1C[C@@H](Oc2ccccc2)CN1C(=O)CNC(=O)CCCOc1ccccc1)c1cc(C(=N)N)cs1` [Compound 111, (2S,4R)-N-((R)-1-(4-carbamimidoylthiophen-2-yl)ethyl)-4-phenoxy-1-((4-phenoxy-butanoyl)glycyl)pyrrolidine-2-carboxamide], less than 100 nM.
As for `N=C(N)c1csc(CNC(=O)[C@@H]2C[C@H](c3ccccc3)CN2C(=O)CNC(=O)c2ccc(Oc3ccccc3)cc2)c1` [Compound 15, (2S,4R)-N-((4-carbamimidoylthiophen-2-yl)methyl)-1-((4-phenoxybenzoyl)glycyl)-4-phenylpyrrolidine-2-carboxamide], the IC50 is 100 to 1000 nM.
In the case of `C[C@@H](NC(=O)[C@@H]1CC2(CC2)CN1C(=O)CNC(=O)CCCOc1ccccc1)c1cc(C(=N)N)cs1` [Compound 116, (6S)-N-[(1R)-1-(4-carbamimidoylthiophen-2-yl)ethyl]-5-[2-(4-phenoxybutanamido)acetyl]-5-azaspiro[2.4]heptane-6-carboxamide] it was less than 100 nM; in that of `C[C@@]12C[C@@H]1N(C(=O)CNC(=O)c1ccc(Oc3ccccc3)cc1)[C@H](C(=O)NCCc1cc(C(=N)N)cs1)C2` [Compound 52, (1S,3S,5S)-N-(2-(4-carbamimidoylthiophen-2-yl)ethyl)-5-methyl-2-((4-phenoxy-benzoyl)glycyl)-2-azabicyclo[3.1.0]hexane-3-carboxamide], less than 100 nM.
Take `C[C@@H](NC(=O)[C@@H]1C[C@@H](Oc2ccccc2)CN1C(=O)CNC(=O)c1ccc(Oc2ccccc2)cc1)c1cc(C(=N)N)cs1` [Compound 181, (2S,4R)-N-((R)-1-(4-carbamimidoylthiophen-2-yl)ethyl)-4-phenoxy-1-((4-phenoxybenzoyl)glycyl)pyrrolidine-2-carboxamide]: the IC50 is less than 100 nM.
To `N=C(N)c1csc(CNC(=O)[C@@H]2CC[C@@H]3CC[C@H](NC(=O)c4ccc(Oc5ccccc5)cc4)C(=O)N32)c1` [Compound 211, (3S,6S,8aS)-N-((4-carbamimidoylthiophen-2-yl)methyl)-5-oxo-6-(4-phenoxybenzamido)octahydroindolizine-3-carboxamide] belongs 100 to 1000 nM; to `C[C@@]12C[C@@H]1N(C(=O)CNC(=O)c1ccc(OC3CCCCC3)cc1)[C@H](C(=O)NCc1cc(C(=N)N)cs1)C2` [Compound 160, (1S,3S,5S)-N-((4-carbamimidoylthiophen-2-yl)methyl)-2-((4-(cyclohexyloxy)benzoyl)glycyl)-5-methyl-2-azabicyclo[3.1.0]hexane-3-carboxamide], less than 100 nM.
On to `Cc1ccc(O[C@@H]2C[C@@H](C(=O)N[C@H](C)c3cc(C(=N)N)cs3)N(C(=O)CNC(=O)CCCOc3ccccc3)C2)cc1` [Compound 131, (2S,4R)-N-((R)-1-(4-carbamimidoylthiophen-2-yl)ethyl)-1-((4-phenoxybutanoyl)glycyl)-4-(p-tolyloxy)pyrrolidine-2-carboxamide], for which the IC50 was less than 100 nM.
To `C[C@H](Oc1ccc(C(=O)NCC(=O)N2[C@H]3C[C@@]3(C)C[C@H]2C(=O)NCc2cc(C(=N)N)cs2)cc1)c1ccccc1` [Compound 212, (1S,3S,5S)-N-((4-carbamimidoylthiophen-2-yl)methyl)-5-methyl-2-((4-((S)-1-phenylethoxy)benzoyl)glycyl)-2-azabicyclo[3.1.0]hexane-3-carboxamide] belongs less than 100 nM; to `C[C@@H](Oc1ccc(C(=O)NCC(=O)N2[C@H]3C[C@@]3(C)C[C@H]2C(=O)NCc2cc(C(=N)N)cs2)cc1)c1ccccc1` [Compound 223, (1S,3S,5S)-N-((4-carbamimidoylthiophen-2-yl)methyl)-5-methyl-2-((4-((R)-1-phenylethoxy)benzoyl)glycyl)-2-azabicyclo[3.1.0]hexane-3-carboxamide], less than 100 nM.
Take `COC[C@@]1(F)C[C@@H](C(=O)NCc2cc(C(=N)N)cs2)N(C(=O)CNC(=O)CCCOc2ccccc2)C1` [Compound 72, (2S,4R)-N-((4-carbamimidoylthiophen-2-yl)methyl)-4-fluoro-4-(methoxymethyl)-1-((4-phenoxybutanoyl)glycyl)pyrrolidine-2-carboxamide]: the IC50 is less than 100 nM.
Turning to `N=C(N)c1csc(CNC(=O)[C@@H]2C[C@H](OC(F)(F)F)CN2C(=O)CNC(=O)c2ccc(Oc3ccccc3)cc2)c1` [Compound 244, (2S,4S)-N-((4-carbamimidoylthiophen-2-yl)methyl)-1-((4-phenoxybenzoyl)glycyl)-4-(trifluoromethoxy)pyrrolidine-2-carboxamide], the IC50 was less than 100 nM.
Consider `C[C@@]12C[C@@H]1N(C(=O)CNC(=O)c1ccc(Oc3ccccc3)cc1)[C@H](C(=O)N(O)Cc1cc(C(=N)N)cs1)C2` [Compound 127, (1S,3S,5S)-N-((4-carbamimidoylthiophen-2-yl)methyl)-N-hydroxy-5-methyl-2-((4-phenoxybenzoyl)glycyl)-2-azabicyclo[3.1.0]hexane-3-carboxamide], for which the IC50 was greater than 1000 nM.
To `COc1cccc(CNC(=O)[C@@H]2C[C@]3(C)C[C@@H]3N2C(=O)CNC(=O)c2ccc(Oc3ccccc3)cc2)c1` [Compound 42, (1S,3S,5S)-N-(3-methoxybenzyl)-5-methyl-2-((4-phenoxybenzoyl)-glycyl)-2-azabicyclo[3.1.0]hexane-3-carboxamide] belongs greater than 1000 nM.

These data come from patent US20250171423A1, “PHARMACEUTICAL COMPOUNDS FOR THE TREATMENT OF COMPLEMENT MEDIATED DISORDERS” (Achillion Pharmaceuticals, Inc., priority 2020, published 2025).
